# From patent US8017773B2, “Cyclohexyl sulfonamide derivatives” (Hoffmann-La Roche Inc., priority 2006, dated 2011)
# Biological target: T1, histamine 3 receptor (H3R) (Homo sapiens, UniProt Q9Y5N1)
# T1 construct: expressed in transfected cells; host or cells: CHO cells (HR3-CHO), membrane preparation
# Experiment: Binding assay with 3H-(R)α-methylhistamine, competition binding on membranes of the human HR3-CHO cell line
# Conditions: 3H(R)α-Methylhistamine 1 nM, Ki calculated from IC50 by Cheng-Prusoff
# Procedure: Binding Assay with ^3H-(R)α-methylhistamine
# Saturation binding experiments were performed using HR3-CHO membranes prepared as described in Takahashi, K, Tokita, S., Kotani, H. (2003) J. Pharmacol. Exp. Therapeutics 307, 213-218.
# An appropriate amount of membrane (60 to 80 μg protein/well) was incubated with increasing concentrations of ^3H(R)α-Methylhistamine di-hydrochloride (0.10 to 10 nM). Non specific binding was determined using a 200 fold excess of cold (R)α-Methylhistamine dihydrobromide (500 nM final concentration). The incubation was carried out at room temperature (in deep-well plates shaking for three hours). The final volume in each well was 250 μl. The incubation was followed by rapid filtration on GF/B filters (pre-soaked with 100 μl of 0.5% PEI in Tris 50 mM shaking at 200 rpm for two hours). The filtration was made using a cell-harvester and the filter plates were then washed five times with ice cold washing buffer containing 0.5 M NaCl. After harvesting, the plates were dried at 55° C. for 60 min, then we added scintillation fluid (Microscint 40, 40 microl in each well) and the amount of radioactivity on the filter was determined in Packard top-counter after shaking the plates for two hours at 200 rpm at room temperature.
# Binding Buffer: 50 mM Tris-HCl pH 7.4 and 5 mM MgCl2×6H2O pH 7.4. Washing Buffer: 50 mM Tris-HCl pH 7.4 and 5 mM MgCl2×6H2O and 0.5 M NaCl pH 7.4.
# Indirect measurement of affinity of H3R inverse agonists: twelve increasing concentrations (ranging from 10 μM to 0.3 nM) of the selected compounds were always tested in competition binding experiments using membrane of the human HR3-CHO cell line. An appropriate amount of protein, e.g. approximately 500 cpm binding of RAMH at Kd, were incubated for 1 hour at room temperature in 250 μl final volume in 96-well plates in presence of ^3H(R)α-Methylhistamine (1 nM final concentration=Kd). […]
# All compounds were tested at a single concentration in duplicates. […] Ki's were calculated from IC50 based on Cheng-Prusoff equation (Cheng, Y, Prusoff, W H (1973) Biochem Pharmacol 22, 3099-3108).
# T1 sequence (Q9Y5N1 whole entry): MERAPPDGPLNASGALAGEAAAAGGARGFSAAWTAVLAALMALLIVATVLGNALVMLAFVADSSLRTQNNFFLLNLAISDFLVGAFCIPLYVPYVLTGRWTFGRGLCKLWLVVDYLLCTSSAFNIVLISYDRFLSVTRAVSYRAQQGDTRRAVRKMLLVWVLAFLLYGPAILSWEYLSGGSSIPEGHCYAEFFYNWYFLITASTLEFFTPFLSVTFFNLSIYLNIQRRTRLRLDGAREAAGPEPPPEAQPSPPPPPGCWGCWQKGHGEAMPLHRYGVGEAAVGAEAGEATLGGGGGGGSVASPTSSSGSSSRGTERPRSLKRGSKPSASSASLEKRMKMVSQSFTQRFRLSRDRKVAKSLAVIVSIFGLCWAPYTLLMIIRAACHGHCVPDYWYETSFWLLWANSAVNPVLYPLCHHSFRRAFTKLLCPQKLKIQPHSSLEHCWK
row,Ki,Compound
1,54.8 nM,"CCCS(=O)(=O)N[C@H]1CC[C@H](C(=O)N2CCN(C(C)C)CC2)CC1 [Example 1, N-{trans-4-[(4-isopropylpiperazin-1-yl)carbonyl]cyclohexyl}propane-1-sulfonamide]"
2,8.9 nM,"CC(C)N1CCN(C(=O)[C@H]2CC[C@H](N(C(C)C)S(=O)(=O)c3ccc(F)c(Cl)c3)CC2)CC1 [Example 64, 3-chloro-4-fluoro-N-isopropyl-N-[trans-4-(4-isopropyl-piperazine-1-carbonyl)-cyclohexyl]-benzenesulfonamide]"
3,23.4 nM,"COc1ccc(S(=O)(=O)N[C@H]2CC[C@H](C(=O)N3CCN(C(C)C)CC3)CC2)c(OC)c1 [Example 15, N-{trans-4-[(4-isopropyl-piperazin-1-yl)carbonyl]-cyclohexyl}-2,4-dimethoxy-benzenesulfonamide]"
